{
  "source": "patent US20160047805A1",
  "about": "“IN SITU-DILUTION METHOD AND SYSTEM FOR MEASURING MOLECULAR AND CHEMICAL INTERACTIONS” (FLIR SYSTEMS, INC., priority 2010, published 2016)",
  "key": {"[1]": {"tested_on": "immobilized carbonic anhydrase", "assay": "SPR kinetic analysis, traditional (stepped/sequential multiple) injection method, thermodynamic analysis", "settings": "HEPES buffer saline pH 7.4, 10, 20, 30, 40 C, 1:1 binding model", "description": "(§1) In Example 1, the kinetic values for the interaction between carboxybeneze sulfonamide and immobilized carbonic anhydrase were determined using a standard multiple injection method and the in situ dilution method described herein. In the classical approach sequential injection method (FIGS. 4A-4D) a series of individual concentrations were prepared as a serial doubling dilution set starting from a neat concentration of 40 mM giving a total of nine different concentrations. These concentrations were made up in the running buffer (i.e HEPES buffer saline, pH 7.4). […] of each sample was injected at […] and allowed dissociate for 300 seconds. Each concentration was repeated in duplicate and the entire analysis was repeated at four different analysis temperatures (10 C, 20 C, 30 C, 40 C—FIGS. 4A-D, respectively). […] In this case a total of three interaction curves is recorded at three different temperatures representing a minimal data set that can be recorded at least an order faster than the conventional approach even normalized for the number replicates and the number of temperatures used. A single neat sample (40 mM) was injected using the in-situ-dilution injection and a serial doubling dilution of analyte was performed on-the-fly yielding a dose response curve. Dissociation was monitored for 200 seconds. This was repeated at three different temperatures. A blank injection was also included at each temperature for double referencing.\n(§2) In both data sets the samples were injected over a protein coated and a non-coated surface to enable double referencing of the binding response curves. The resulting referenced binding response curves were then fitted with a kinetic 1:1 binding interaction model and the fitted curves are shown in red. The kinetic values were then analyzed thermodynamically to determined thermodynamic constants for the interaction and these are shown in Tables 1 and 2 below."}, "[2]": {"tested_on": "immobilized carbonic anhydrase", "assay": "SPR kinetic analysis, in situ dilution injection method, thermodynamic analysis", "settings": "three temperatures (10, 25, 35 °C), 1:1 binding model", "description": "as §1, §2"}},
  "data": [
    {"smiles": "NS(=O)(=O)c1ccc(C(=O)O)cc1", "note": "[carboxybeneze sulfonamide]", "values": [
      {"measurement": "ΔG‡ Association", "setting": "[1]; association", "value": 11.60, "unit": "kcal/mol"},
      {"measurement": "ΔH‡ Association", "setting": "[1]; association", "value": 3.96, "unit": "kcal/mol"},
      {"measurement": "ΔS‡ Association", "setting": "[1]; association", "value": "−26.1", "unit": "cal/mol K"},
      {"measurement": "ΔG‡ Dissociation", "setting": "[1]; dissociation", "value": 19.32, "unit": "kcal/mol"},
      {"measurement": "ΔH‡ Dissociation", "setting": "[1]; dissociation", "value": 14.63, "unit": "kcal/mol"},
      {"measurement": "ΔS‡ Dissociation", "setting": "[1]; dissociation", "value": "−16.0", "unit": "cal/mol K"},
      {"measurement": "ΔG‡ Association", "setting": "[2]; association", "value": 11.1, "unit": "kcal/mol"},
      {"measurement": "ΔH‡ Association", "setting": "[2]; association", "value": 4.1, "unit": "kcal/mol"},
      {"measurement": "ΔS‡ Association", "setting": "[2]; association", "value": "−24", "unit": "cal/mol K"},
      {"measurement": "ΔG‡ Dissociation", "setting": "[2]; dissociation", "value": 18.8, "unit": "kcal/mol"},
      {"measurement": "ΔH‡ Dissociation", "setting": "[2]; dissociation", "value": 13.1, "unit": "kcal/mol"},
      {"measurement": "ΔS‡ Dissociation", "setting": "[2]; dissociation", "value": "−20", "unit": "cal/mol K"}
    ]}
  ]
}
